# Experimental data: US6573276B2, “Muscarinic M1 agonist as an inhibitor of beta-amyloid (Aβ40 and Aβ42)-synthesis” (Boehringer Ingelheim Pharma KG, priority 2001, dated 2003)
# Columns and labels:
# Aβ40 = experiment: CSF levels of Aβ40 (sandwich ELISA) before and after 4 weeks of treatment, clinical phase II trial; type: in vivo, human
# Procedure: (§1) To test whether this effect also occurs in humans, talsaclidine or placebo were administered to 40 patients with clinical diagnosis of probable senile dementia of Alzheimer-type and measured cerebrospinal fluid (CSF) levels of Aβ40 and Aβ42 before and at the end of 4 weeks of treatment. To control for specificity, CSF levels of both total tau and phosphorylated tau were also measured.
# Diagnosis of probable Alzheimer's disease was made according to the National Institute of Neurological and Communicative Disorders and Stroke-Alzheimer's Disease and Related Disorders Association (NINCDS-ADRDA) as well as ICD10 criteria. All patients were community-dwelling and were referred to the participating dementia clinics from general practitioners, neurologists, and psychiatrists. All patients gave their informed consent and were screened for participation in a clinical phase II trial in accordance with GCP and ICH guidelines. The clinical phase II trial was designed to test the safety and tolerability of talsaclidine. […]
# Sandwich ELISA was performed with the capture antibody 6E10 (Senetek, Maryland Heights, Mo.). […] After color development with 3,5,3′,5′-tetramethylbenzidine (TMB) and hydrogen peroxide, absorbance was read at 450 nm on a microplate reader (Victor2 Multilabel, EG&G® Wallac). […]
# Aβ formation = conditions: cell culture and brain slice models; background statement; cited from earlier work
# Aβ42 = experiment: CSF levels of Aβ42 (sandwich ELISA) before and after 4 weeks of treatment, clinical phase II trial; type: in vivo, human
# Procedure: as §1
# (§2) Diagnosis of probable Alzheimer's disease was made according to the National Institute of Neurological and Communicative Disorders and Stroke-Alzheimer's Disease and Related Disorders Association (NINCDS-ADRDA) as well as ICD10 criteria. All patients were community-dwelling and were referred to the participating dementia clinics from general practitioners, neurologists, and psychiatrists. All patients gave their informed consent and were screened for participation in a clinical phase II trial in accordance with GCP and ICH guidelines. The clinical phase II trial was designed to test the safety and tolerability of talsaclidine. CSF measurements were performed within a scientific add-on protocol and additional separate informed consent to the multicenter clinical trial.
# Patients were carefully examined and received a thorough clinical work-up. Psychometric testing included the Mini Mental State Examination (MMSE) as a global screening instrument for dementia, the Alzheimer's Disease Assessment Scale, cognitive part (ADAScog), the Clinical Global Impression (CGI) and the Behavioral Pathology in AD (BEHAVE-AD). There were 40 participants in the study with two CSF samples each. Among the inclusion criteria were age below 85 years, MMSE between 12 and 28, and the absence of relevant systemic disorders.
# Talsaclidine was given, in a randomized, double-blind design, three times per day (t.i.d) in a constant dosage with increasing dose panels. Both capsules or tablets of different dose strength were applied. The specific formulations used are outlined in detail below.
# The aforementioned pharmaceutical compositions were administered twice daily or three times per day to the patients. The following dosings were applied: 4.5 mg talsaclidine (n=5 patients); 9 mg (n=4); 18 mg (n=4); 36 mg (n=4); 72 mg (n=4); 96 mg (n=4); 108 mg (n=4); 120 mg (n=2); 144 mg (n=3); and placebo (n=6).
# Within one week of dementia testing and before treatment, CFS was obtained by lumbar puncture according to conventional techniques. CFS samples were frozen on dry ice immediately upon withdrawal at the bedside in 0.5 ml aliquots and stored at −85° C. until biochemical analyses. A second lumbar puncture was done after four weeks of treatment and the CFS obtained was processed identically to the initial lumbar puncture. All available CFS samples were included in the analyses.
# Sandwich ELISA was performed by using precoated plates (INNOTEST β-Amyloid 1-42, 8-well strips; Innogenetics, Belgium) with the capture antibody 21F12 (Innogenetics, Belgium). The capture 21F12 is specific for the free carboxyl terminus of Aβ42 (peptide sequence Aβ33-42). After washing (5×, room temperature), biotinylated antibody 6E10 at […] concentration in blocking buffer (50 mM Tris-HCl pH 7.5; 140 mM NaCl; 5 mM EDTA; 0.05% NP40; 0.25% gelatine; 1% BSA) was added. Each assay plate included a standard curve with highly purified Aβ42. After color development with TMP and Vectastain ABC detection (streptavidin-peroxidase complex, Vectastain Elite ABC Kit), absorbance was read at 450 nm. The linear range of the assay was 30 pg/ml to 5 ng/ml. There was no cross reactivity in either assay with Aβ42 or Aβ40.
# Statistical analyses of data were done by Wilcoxon signed-rank tests for paired samples as well as by the Mann-Whitney U test for group comparisons. Bonferroni correction for multiple testing was performed. Analyses of covariates were used to test whether changes correlated with age, gender, or dementia severity.
# tau protein = experiment: CSF levels of tau (sandwich ELISA) before and after 4 weeks of treatment, clinical phase II trial; type: in vivo, human; conditions: patients
# Procedure: as §1, §2
# Patients were carefully examined and received a thorough clinical work-up. […]
# The monoclonal antibody AT120 that reacts with both normal and HPF-tau was used in a sensitive sandwich ELISA (Innogenetics, Belgium). […] Absorbance was read at 450 nm. […]
# [1] = dosings 4.5 to 144 mg talsaclidine, four weeks
# [2] = patients treated with talsaclidine, four weeks
smiles,measurement,setting,value
C#CCOC1CN2CCC1CC2 (stereo not drawn) [talsaclidine],dose dependence of change of CSF levels of Aβ40,Aβ40; [1],decreased dose dependently
same,CSF levels of Aβ40 in total in comparison to placebo,"Aβ40; patients, four weeks of treatment",did not increase in total in comparison to placebo
same,Aβ formation,Aβ formation,lowers Aβ formation
same,dose dependence of the decrease of CSF levels of Aβ42,Aβ42; [1],not dose dependently
same,patients in whom CSF levels of Aβ42 decreased,Aβ42; [2],65%
same,patients in whom CSF levels of Aβ42 did not change,Aβ42; [2],15%
same,patients in whom CSF levels of Aβ42 increased,Aβ42; [2],20%
same,mean CSF levels of Aβ42 (mean±SD),"Aβ42; patients with probable Alzheimer's disease, talsaclidine group n=34, starting value ('decreased from'), value after four weeks not given",0.126 ± 0.073 ng/mL
same,"decrease of CSF levels of Aβ42 over time within the treatment group, median","Aβ42; patients, four weeks of treatment, n=34, significant",17%
same,"decrease of CSF levels of Aβ42 compared to placebo, median","Aβ42; patients, four weeks of treatment, talsaclidine n=34 vs placebo n=6, significant",23%
same,dose dependence of change of CSF tau,"tau protein; n=34, dosings 4.5 to 144 mg talsaclidine, four weeks",decreased dose dependently
same,CSF tau in total in comparison to placebo,"tau protein; n=34, four weeks of treatment",did not decrease in total in comparison to placebo
